ChEMBL document CHEMBL1201862, “PubChem BioAssay data set” (2004)
“And” between values parts separate entries of the source, which are not always exact repeats. Identical values can stand only once.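 Five concentrations, 48 hours, 96-well plates. GI50 = concentration required for 50% inhibition of growth.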 The source made the active and inactive calls. Rule as the data show it: active = GI50 up to about 1.1 µM and inactive = higher.

What was measured:
Test in all cases: NCI anticancer screen, dose series, 48 h
[1] = system: 786-0
[2] = system: A498
[3] = system: A549
[4] = system: ACHN
[5] = system: CAKI-1
[6] = system: CCRF-CEM
[7] = system: COLO 205
[8] = system: DLD-1
[9] = system: DMS-114
[10] = system: DMS-273
[11] = system: EKVX
[12] = system: HCC 2998
[13] = system: HCT-116
[14] = system: HCT-15
[15] = system: HL-60
[16] = system: HOP-18
[17] = system: HOP-62
[18] = system: HOP-92
[19] = system: HT-29
[20] = system: IGROV-1
[21] = system: K562
[22] = system: KM-20L2
[23] = system: KM12
[24] = system: LOX IMVI
[25] = system: LXFL 529
[26] = system: M14
[27] = system: M19-MEL
[28] = system: MOLT-4
[29] = system: Malme-3M
[30] = system: NCI-H23
[31] = system: NCI-H460
[32] = system: OVCAR-3
[33] = system: OVCAR-4
[34] = system: OVCAR-5
[35] = system: OVCAR-8
[36] = system: RPMI-8226
[37] = system: RXF 393
[38] = system: SF-268
[39] = system: SF-295
[40] = system: SF-539
[41] = system: SK-MEL-2
[42] = system: SK-MEL-5
[43] = system: SK-OV-3
[44] = system: SN12C
[45] = system: SNB-19
[46] = system: SNB-75
[47] = system: SNB-78
[48] = system: SW-620
[49] = system: TK-10
[50] = system: U-251
[51] = system: UACC-257
[52] = system: UACC-62
[53] = system: UO-31
[54] = system: NCI-H226
[55] = system: NCI-H522
[56] = system: SK-MEL-28
[57] = system: SR
[58] = system: XF498
[59] = system: BT-549
[60] = system: DU-145
[61] = system: Hs-578T
[62] = system: MCF7
[63] = system: MDA-MB-231
[64] = system: MDA-MB-435
[65] = system: MDA-N
[66] = system: NCI/ADR-RES
[67] = system: PC-3
[68] = system: T47D

In the case of `COc1ccc(C=O)cc1O[Si](C)(C)C(C)(C)C`, the GI50 [1] is reported as > 100 µM (inactive), the GI50 [2] is reported as > 100 µM (inactive) and the GI50 [3] is reported as > 100 µM (inactive). For the same molecule, the GI50 [4] was > 100 µM (inactive), the GI50 [5] was > 100 µM (inactive) and the GI50 [6] was > 100 µM (inactive). For the same molecule, the GI50 [7] was > 100 µM (inactive), the GI50 [8] was > 100 µM (inactive) and the GI50 [9] was > 100 µM (inactive). The GI50 [10] was > 100 µM (inactive), the GI50 [11] was > 100 µM (inactive) and the GI50 [12] was > 100 µM (inactive). For the same molecule, the GI50 [13] was > 100 µM (inactive), the GI50 [14] was greater than 100 µM and the GI50 [15] was > 100 µM (inactive). The GI50 [16] was 33.7 µM (inactive), the GI50 [17] was > 100 µM (inactive) and the GI50 [18] was 25.7 µM (inactive). The GI50 [19] was > 100 µM (inactive), the GI50 [20] was > 100 µM (inactive) and the GI50 [21] was > 100 µM (inactive). For the same molecule, the GI50 [22] was > 100 µM (inactive), the GI50 [23] was > 100 µM (inactive) and the GI50 [24] was > 100 µM (inactive). The GI50 [25] was > 100 µM (inactive), the GI50 [26] was > 100 µM (inactive) and the GI50 [27] was > 100 µM (inactive). For the same molecule, the GI50 [28] was > 100 µM (inactive), the GI50 [29] was > 100 µM (inactive) and the GI50 [30] was > 100 µM (inactive). The GI50 [31] was > 100 µM (inactive), the GI50 [32] was > 100 µM (inactive) and the GI50 [33] was > 100 µM (inactive). The GI50 [34] was > 100 µM (inactive), the GI50 [35] was > 100 µM (inactive) and the GI50 [36] was > 100 µM (inactive). The GI50 [37] was > 100 µM (inactive), the GI50 [38] was > 100 µM (inactive) and the GI50 [39] was > 100 µM (inactive). The GI50 [40] was > 100 µM (inactive), the GI50 [41] was > 100 µM (inactive) and the GI50 [42] was > 100 µM (inactive). The GI50 [43] was > 100 µM (inactive), the GI50 [44] was > 100 µM (inactive) and the GI50 [45] was > 100 µM (inactive). The GI50 [46] was 61.5 µM (inactive), the GI50 [47] was > 100 µM (inactive) and the GI50 [48] was > 100 µM (inactive). For the same molecule, the GI50 [49] was > 100 µM (inactive), the GI50 [50] was > 100 µM (inactive) and the GI50 [51] was > 100 µM (inactive). The GI50 [52] was > 100 µM (inactive) and the GI50 [53] was > 100 µM (inactive).
With `CC(=O)OC1[C@H]2c3cc4c(cc3CN3CCC(=C[C@@H]1O)C23)OCO4` (stereo partly specified) the GI50 [1] was > 100 µM (inactive), the GI50 [3] was > 100 µM (inactive) and the GI50 [4] was 33.1 µM (inactive). For the same molecule, the GI50 [6] was > 100 µM (inactive), the GI50 [7] was > 100 µM (inactive) and the GI50 [8] was > 100 µM (inactive). The GI50 [10] was > 100 µM (inactive), the GI50 [11] was 34 µM (inactive) and the GI50 [12] was 34.8 µM (inactive). The GI50 [14] was greater than 100 µM, the GI50 [15] was > 100 µM (inactive) and the GI50 [17] was > 100 µM (inactive). The GI50 [19] was > 100 µM (inactive), the GI50 [20] was > 100 µM (inactive) and the GI50 [21] was > 100 µM (inactive). For the same molecule, the GI50 [22] was 77.8 µM (inactive), the GI50 [23] was 44.4 µM (inactive) and the GI50 [24] was > 100 µM (inactive). The GI50 [25] was 48.6 µM (inactive), the GI50 [26] was 44.5 µM (inactive) and the GI50 [27] was > 100 µM (inactive). For the same molecule, the GI50 [28] was > 100 µM (inactive), the GI50 [29] was > 100 µM (inactive) and the GI50 [54] was 34.7 µM (inactive). For the same molecule, the GI50 [30] was > 100 µM (inactive), the GI50 [31] was > 100 µM (inactive) and the GI50 [55] was > 100 µM (inactive). For the same molecule, the GI50 [32] was > 100 µM (inactive), the GI50 [35] was > 100 µM (inactive) and the GI50 [36] was > 100 µM (inactive). For the same molecule, the GI50 [37] was > 100 µM (inactive), the GI50 [38] was 37.2 µM (inactive) and the GI50 [39] was 43.6 µM (inactive). For the same molecule, the GI50 [40] was > 100 µM (inactive), the GI50 [56] was 23.4 µM (inactive) and the GI50 [43] was > 100 µM (inactive). For the same molecule, the GI50 [44] was > 100 µM (inactive), the GI50 [45] was 56.8 µM (inactive) and the GI50 [46] was 47.6 µM (inactive). The GI50 [47] was 54.2 µM (inactive), the GI50 [57] was > 100 µM (inactive) and the GI50 [48] was > 100 µM (inactive). The GI50 [49] was > 100 µM (inactive), the GI50 [50] was > 100 µM (inactive) and the GI50 [51] was 46.9 µM (inactive). For the same molecule, the GI50 [52] was 53.7 µM (inactive) and the GI50 [53] was > 100 µM (inactive).
For `CC(=O)c1c(O)c(C)c(O)c2c1OC1=CC(=O)C(C(C)=O)C(=O)C12C` (stereo unspecified), the GI50 [29] was 13.1 µM (inactive) and 23.7 µM (inactive), the GI50 [56] was 14.3 µM (inactive) and 17.1 µM (inactive) and the GI50 [58] was 555 nM (active) and 422 nM (active).
For `COc1cc2c(cc1OC)[C@@H](Nc1ccc(C#N)cc1)C1COC(=O)[C@@H]1C2c1cc(OC)c(O)c(OC)c1` (stereo partly specified), the GI50 [1] was 0.196 µM (active), the GI50 [2] was 0.042 µM (active) and the GI50 [4] was 0.0279 µM (active). The GI50 [59] was 1.41 µM (inactive), the GI50 [7] was 2.13 µM (inactive) and the GI50 [8] was 2.37 µM (inactive). The GI50 [10] was 0.0403 µM (active), the GI50 [60] was 149 nM (active) and the GI50 [15] was < 0.00975 µM (active). For the same molecule, the GI50 [16] was 0.805 µM (active), the GI50 [19] was 1.87 µM (inactive) and the GI50 [61] was 1.55 µM (inactive). For the same molecule, the GI50 [22] was 3.12 µM (inactive), the GI50 [23] was 1.59 µM (inactive) and the GI50 [24] was 0.214 µM (active). For the same molecule, the GI50 [25] was 22.4 µM (inactive), the GI50 [27] was 2.39 µM (inactive) and the GI50 [62] was 181 nM (active). For the same molecule, the GI50 [63] was 2.36 µM (inactive), the GI50 [64] was 6.73 µM (inactive) and the GI50 [65] was 3.18 µM (inactive). For the same molecule, the GI50 [28] was < 0.00975 µM (active), the GI50 [54] was 0.01 µM (active) and the GI50 [31] was < 0.00975 µM (active). The GI50 [66] was 40.2 µM (inactive), the GI50 [67] was > 100 µM (inactive) and the GI50 [37] was 2.09 µM (inactive). For the same molecule, the GI50 [39] was 0.108 µM (active), the GI50 [40] was 0.158 µM (active) and the GI50 [44] was 0.192 µM (active). The GI50 [45] was 0.344 µM (active), the GI50 [46] was 0.328 µM (active) and the GI50 [47] was 5.79 µM (inactive). The GI50 [57] was < 0.00975 µM (active), the GI50 [48] was 0.948 µM (active) and the GI50 [68] was 167 nM (active). For the same molecule, the GI50 [51] was 28.3 µM (inactive) and the GI50 [53] was 1.75 µM (inactive).
